Where two headings read alike, the source gives them in different places.
Experiments:
[1] = system: APP/PS1 mice; assay: Ca2+ imaging in APP/PS1 mice; parameters: species or system mouse
[2] = system: X-box binding protein 1 spliced variant (XBP1spl); assay: qPCR of ER-stress marker XBP1spl mRNA in hippocampus of treated APP/PS1 mice; format: in vivo, mouse; details: 30 mg/kg oral gavage 3 times per week for 8 weeks, vs untreated APP/PS1, normalized to Cyclophilin, mean ± SD
Description: (§1) As previously established in Alzheimer’s disease (AD) research, ER stress is an apparent consequence of protein misfolding within AD pathophysiology. In response to this ER stress, cells activate a group of signaling pathways known as the unfolded protein response (UPR) that aims to restore ER function so the cell may survive. […] We examined the mRNA expression levels of these ER-stress markers in the hippocampus of APP/PS1 mice treated with NUCC-0226446, NUCC-0226614, NUCC-0226646, and NDC-1173 compounds compared to untreated APP/PS1 mice utilizing real-time quantitative PCR using primer sets indicated in Table 2. There was significant reduction (p = 0.0002) in the ER-stress marker, Chop, after treatment with NDC-1173 compared to untreated APP/PS1 mice (n = 9–11) (Figure 4, Table 3). […]
(§2) At 10 months of age, mice were rapidly decapitated, and the entire hippocampus was dissected and snap-frozen using liquid nitrogen. […] Total RNA concentration and purity was then measured using a NanoDrop spectrophotometer. […] Data were exported from the RT PCR machine into an excel worksheet. %CVs were calculated between triplicate well CT values to rule out technical outliers. […] Relative expression was then analyzed following the comparative CT method ( 2^−∆∆CT method).

[3] = system: activating transcription factor 6 (ATF6); assay: qPCR of ER-stress marker ATF6 mRNA in hippocampus of treated APP/PS1 mice; format: in vivo, mouse; details: 30 mg/kg oral gavage 3 times per week for 8 weeks, vs untreated APP/PS1, normalized to Cyclophilin, mean ± SD
Description: as §1, §2

[4] = system: ryanodine receptor; assay: Selectivity test on ryanodine receptor; format: biochemical; details: selectivity for SERCA
[5] = system: L-type Ca channel; assay: Selectivity test on L-type Ca channel; format: biochemical; details: selectivity for SERCA
[6] = system: APP/PS1 mice; assay: Tolerability during 8 weeks of administration; format: in vivo, mouse; details: 30 mg/kg oral gavage 3 times per week for 8 weeks
Procedure: Vehicle or NDC 1173 was administered via oral gavage 3 times per week for 8 weeks at a dose of 30 mg/kg in a vehicle containing 10%DMSO/10%Tween80 in water at a 3 mg/mL concentration. The dose was chosen so that the drug would be on board while the first signs of amyloid plaques appear (6 mos) and before the time the disease had fully progressed. We chose to administer the drug 3 times per week to cause minimal stress to the mouse.

[7] = system: C/EBP homologous protein (CHOP/Ddit3); assay: qPCR of ER-stress marker CHOP mRNA in hippocampus of treated APP/PS1 mice; format: in vivo, mouse; details: 30 mg/kg oral gavage 3 times per week for 8 weeks, vs untreated APP/PS1, normalized to Cyclophilin, mean ± SD
Description: as §1, §2

[8] = system: APP/PS1 mice; assay: Object recognition task; format: in vivo, mouse; details: 30 mg/kg oral gavage 3 times per week for 8 weeks, test 24 h after training
Procedure: (§3) To evaluate the effects of NUCC-0226446, NUCC-0226614, NUCC-0226646, and NDC-1173 on cognitive readouts in the AD mouse model, we treated APP/PS1 male and female mice with vehicle (10%DMSO/10%Tween80 in water) or SERCA PAMs (30 mg/kg) via oral gavage three times per week for 8 weeks, starting at 6 months of age. Open-field, object-recognition, and water maze assays were performed following treatment with 8-month-old mice. To test for locomotor activity changes in response to SERCA PAMs treatment in APP/PS1, we used the open-field test. The results obtained with NUCC-0226446, NUCC-0226614, NUCC-0226646 are shown in Supplementary Figure S1 and results with NDC-1173 are shown in Figure 3. […] There was a significant sex difference in the open field (F(1,27) = […]), but there was no sex by treatment interaction found.
(§4) Vehicle or NDC 1173 was administered via oral gavage 3 times per week for 8 weeks at a dose of 30 mg/kg in a vehicle containing 10%DMSO/10%Tween80 in water at a 3 mg/mL concentration. […]
The object recognition task (OR) was performed as previously described. […] Interaction was determined by the length of time the mouse’s nose was within 1 cm of a tightly drawn zone around each object. […] Time spent interacting with each object was then measured using Ethovision XT software (Version 15). […]

[9] = system: Na/K-ATPase; assay: Selectivity test on Na/K-ATPase; format: biochemical; details: selectivity for SERCA
[10] = system: binding immunoglobulin protein (BiP/Grp78); assay: qPCR of ER-stress marker BiP mRNA in hippocampus of treated APP/PS1 mice; format: in vivo, mouse; details: 30 mg/kg oral gavage 3 times per week for 8 weeks, vs untreated APP/PS1, normalized to Cyclophilin, mean ± SD
Description: as §1, §2

[11] = Pharmacokinetics in CD-1 mice (plasma and brain); format: in vivo, mouse
Procedure: Pharmacokinetics of NDC-1173 were assessed in CD-1 mice. The compound was formulated at 1 mg/mL in DMSO/Tween 80/water (10/10/80, vol/vol/vol) and dosed at 2 mg/kg intravenously (i.v.) or 10 mg/kg via oral gavage (P.O.) in triplicate. Blood was drawn at 0.25 h, 0.5 h, 1 h, 2 h, 4 h, 8 h, and 24 h into EDTA-containing tubes, and plasma was harvested via centrifugation. Plasma (10 μL) containing 50% acetonitrile in water (5 μL) was added to 200 µL of ACN containing an internal standard. The samples were vortexed for 30 s. After centrifugation at 4 °C and 4000 rpm for 15 min, the supernatant was diluted 3 times with water. Then, 20 µL of diluted supernatant was injected into the LC/MS/MS system for quantitative analysis. The samples were injected onto an Agilent ZORBAX XDB-Phenyl 5 μ column (50 × 2.10 mm). Mobile Phase A was water with 0.1% formic acid. Mobile Phase B was acetonitrile with 0.1% formic acid. Separation was achieved using a gradient of 70% A/30% B to 0% A/100% B over 2.10 min. A Shimadzu LCMS-8050 equipped with a turbo ion spray source was used for all analytical measurements. Data were fit using WinNonLin https://www.certara.com/software/phoenix-winnonlin/, accessed on 1 May 2023.

[12] = system: activating transcription factor 4 (ATF4); assay: qPCR of ER-stress marker ATF4 mRNA in hippocampus of treated APP/PS1 mice; format: in vivo, mouse; details: 30 mg/kg oral gavage 3 times per week for 8 weeks, vs untreated APP/PS1, normalized to Cyclophilin, mean ± SD
Description: as §1, §2

[13] = system: APP/PS1 mice; assay: Morris water maze (training and probe trial); format: in vivo, mouse; details: 30 mg/kg oral gavage 3 times per week for 8 weeks
Procedure: as §3, §4
The water maze consisted of 3 phases pre-training, training, and probe trial. […] Ethovision XT (Version 15) tracking software recorded the latency to the platform. […] During the probe trial, the platform was not present within the pool and the search pattern of the mouse is measured. […]

[14] = CD-1, mouse, plasma, oral administration 10 mg/kg

SMILES: Cc1ccc2cccc(NC(=O)c3ccc(OC(C)C)cc3)c2n1 [CDN-1163]
- Effect on Ca2+ homeostasis [1]: restores normal Ca^2+ homeostasis

SMILES: COc1c(C)cccc1C(=O)Nc1cccc2ccc(C)nc12 [NDC-1173, 2-methoxy-3-methyl-N-(2-methylquinolin-8-yl)benzamide]
- Fold-change of XBP1spl mRNA expression [2]: 0.72 ± 0.577
- Fold-change of ATF6 mRNA expression [3]: 0.79 ± 0.327
- Functional effect on ryanodine receptor [4]: no significant functional effects
- Functional effect on L-type Ca channel [5]: no significant functional effects
- Adverse effects or weight loss [6]: no adverse effects or weight loss
- Fold-change of CHOP mRNA expression [7]: 0.52 ± 0.195
- Object memory (time spent with novel object) vs vehicle [8]: significant increase in time spent with the novel object
- Functional effect on Na/K-ATPase [9]: no significant functional effects
- Fold-change of BiP mRNA expression [10]: 0.74 ± 0.401
- half-life ([11]; CD-1, mouse, brain, oral administration 10 mg/kg, read-out: Brain t1/2 (converted)): 1.1 h
- Kp ([11]; CD-1, mouse, brain/plasma, oral administration 10 mg/kg, read-out: Brain/plasma ratio): 2.8
- AUC [11, 14]: 375 ng·h/mL
- Cmax [11, 14]: 1250 nM
- half-life ([11]; CD-1, mouse, plasma, oral administration 10 mg/kg, read-out: Plasma t1/2 (converted)): 0.9 h
- bioavailability ([11]; CD-1, mouse, plasma, oral, 10 mg/kg P.O. vs 2 mg/kg i.v.): 25.6%
- Brain concentration at 2 h ([11]; oral administration 10 mg/kg): 2500 nM
- Fold-change of ATF4 mRNA expression [12]: 1.17 ± 0.496
- Spatial learning in water maze training (4 days) vs vehicle [13]: did not have better performance in spatial learning
- Spatial memory in water maze probe trial (time in target quadrant) vs vehicle ([13]; 24 h after last training): spent more time in the quadrant where the escape platform was located

From PMC10341805, “Positive Allosteric Modulator of SERCA Pump NDC-1173 Exerts Beneficial Effects in Mouse Model of Alzheimer’s Disease” (International Journal of Molecular Sciences, 2023)
